In patent US20210047324A1 (Aptinyx Inc., priority 2018, published 2021):

What was measured:
[1] = IV pharmacokinetics in Sprague Dawley rats; assay type: in vivo; settings: Sprague-Dawley, rat, in vivo, iv, 2 mg/kg, normal saline; for Cmax: read-out: Cmax; for Vd: read-out: Vss
Procedure: Sprague Dawley rats were dosed intravenously using a normal saline formulation containing 2 mg/kg of the compounds identified in the below table. The table below summarizes the results of the IV pharmacokinetics.

[2] = Microsomal stability (Human); assay type: in vitro ADME; settings: after 60 minutes
Procedure: (§1) Microsomal stability of disclosed compounds was investigated. The following table indicates the percent of compound remaining after 60 minutes.

[3] = Plasma stability (Human); assay type: in vitro ADME; settings: after 60 minutes
Procedure: (§2) Plasma stability of disclosed compounds was investigated. The following table indicates the percent of compound remaining after 60 minutes.

[4] = target: T1, NMDAR2A (Homo sapiens, UniProt Q12879); assay: NMDAR agonist assay, [3H]MK-801 binding, NMDAR2A expressing HEK cell membranes; assay type: biochemical; settings: 50 μM glutamate; for EC50: read-out: NMDAR2A B: log EC50 (converted); for Emax: 0.25 h, read-out: NMDAR2A A: % maximal [3H]MK-801 binding relative to 1 mM glycine; for Emax / NMDAR2A A: % maximal [3H]MK-801 binding relative to 1 mM glycine: relative to 1 mM glycine
T1 construct: expressed in transfected cells; host or cells: HEK cells (membrane extract)
Procedure: (§3) Assays were conducted as described by Moskal et al., “GLYX-13: a monoclonal antibody-derived peptide that acts as an N-methyl-D-aspartate receptor modulator,” Neuropharmacology, 49, 1077-87, 2005. These studies were designed to determine if the test compounds act to facilitate NMDAR activation in NMDAR2A, NMDAR2B, NMDAR2C or NMDAR2D expressing HEK cell membranes as measured by increases in [^3H]MK-801 binding.
(§4) In the assay, 300 μg of NMDAR expressing HEK cell membrane extract protein was preincubated for 15 minutes at […] in the presence of saturating concentrations of glutamate (50 μM) and varying concentrations of test compound (1×10^−15M-1×10^−7M), or 1 mM glycine. Following the addition of 0.3 μCi of [3H]MK-801 (22.5 Ci/mmol), reactions were again incubated for 15 minutes at 25° C. (nonequilibrium conditions). Bound and free [3H]MK-801 were separated via rapid filtration using a Brandel apparatus.
(§5) In analyzing the data, the DPM (disintegrations per minute) of [3H]MK-801 remaining on the filter were measured for each concentration of test compound or for 1 mM glycine. The DPM values for each concentration of a ligand (N=2) were averaged. The baseline value was determined from the best fit curve of the DPM values modeled using the GraphPad program and the log(agonist) vs. response (three parameters) algorithm was then subtracted from all points in the dataset. The % maximal [^3H]MK-801 binding was then calculated relative to that of 1 mM glycine: all baseline subtracted DPM values were divided by the average value for 1 mM glycine. The EC50 and % maximal activity were then obtained from the best fit curve of the % maximal [3H]MK-801 binding data modelled using the GraphPad program and the log(agonist) vs. response (three parameters) algorithm.
(§6) The tables below summarize the results for the wild type […] NMDAR2A, NMDAR2B, NMDAR2C, and NMDAR2D, and whether the compound is not an agonist (−), is an agonist (+), or is a strong agonist (++), where column A is based on the % maximal [3H]MK-801 binding relative to 1 mM glycine (−=0; <100%=+; and >100%=++); and column B is based on log EC50 values (0=−; ≥1×10^−9 M (e.g., −8)=+; and <1×10^−9 M (e.g., −10)=++).

[5] = target: T2, NMDAR2B (Homo sapiens, UniProt Q13224); assay: NMDAR agonist assay, [3H]MK-801 binding, NMDAR2B expressing HEK cell membranes; assay type: biochemical; settings: 50 μM glutamate; for EC50: read-out: NMDAR2B B: log EC50 (converted); for Emax / NMDAR2B A: % maximal [3H]MK-801 binding relative to 1 mM glycine: relative to 1 mM glycine; for Emax: read-out: NMDAR2B A: % maximal [3H]MK-801 binding relative to 1 mM glycine
T2 construct: expressed in transfected cells; host or cells: HEK cells (membrane extract)
Procedure: as §3, §4, §5, §6

[6] = Plasma stability (Rat); assay type: in vitro ADME; settings: after 60 minutes
Procedure: as §2

[7] = Oral pharmacokinetics in Sprague Dawley rats (plasma, brain, CSF); assay type: in vivo; settings: rat, 10 mg/kg; for Tmax / AUC(0-t) / bioavailability / Cmax: Sprague-Dawley, po, plasma; for Tmax / AUC(0-t) / Cmax / CSF Cmax / Brain Cmax: per os; for Tmax: read-out: Tmax; for bioavailability: per os 10 mg/kg; for Cmax: read-out: Cmax
Procedure: In another experiment, Sprague Dawley rats were dosed per os (oral gavage) using a normal saline formulation containing 10 mg/kg of the compounds identified in the table below. Plasma, brain, and CSF samples were analyzed at various time points over a 24 hour period. The table below summarizes the results of the oral pharmacokinetics, where the first three values (Tmax, Cmax and AUClast) are plasma values.

[8] = Microsomal stability (Rat); assay type: in vitro ADME; settings: after 60 minutes
Procedure: as §1

T1 sequence (Q12879 23-1464, species assumed, other chains not shown): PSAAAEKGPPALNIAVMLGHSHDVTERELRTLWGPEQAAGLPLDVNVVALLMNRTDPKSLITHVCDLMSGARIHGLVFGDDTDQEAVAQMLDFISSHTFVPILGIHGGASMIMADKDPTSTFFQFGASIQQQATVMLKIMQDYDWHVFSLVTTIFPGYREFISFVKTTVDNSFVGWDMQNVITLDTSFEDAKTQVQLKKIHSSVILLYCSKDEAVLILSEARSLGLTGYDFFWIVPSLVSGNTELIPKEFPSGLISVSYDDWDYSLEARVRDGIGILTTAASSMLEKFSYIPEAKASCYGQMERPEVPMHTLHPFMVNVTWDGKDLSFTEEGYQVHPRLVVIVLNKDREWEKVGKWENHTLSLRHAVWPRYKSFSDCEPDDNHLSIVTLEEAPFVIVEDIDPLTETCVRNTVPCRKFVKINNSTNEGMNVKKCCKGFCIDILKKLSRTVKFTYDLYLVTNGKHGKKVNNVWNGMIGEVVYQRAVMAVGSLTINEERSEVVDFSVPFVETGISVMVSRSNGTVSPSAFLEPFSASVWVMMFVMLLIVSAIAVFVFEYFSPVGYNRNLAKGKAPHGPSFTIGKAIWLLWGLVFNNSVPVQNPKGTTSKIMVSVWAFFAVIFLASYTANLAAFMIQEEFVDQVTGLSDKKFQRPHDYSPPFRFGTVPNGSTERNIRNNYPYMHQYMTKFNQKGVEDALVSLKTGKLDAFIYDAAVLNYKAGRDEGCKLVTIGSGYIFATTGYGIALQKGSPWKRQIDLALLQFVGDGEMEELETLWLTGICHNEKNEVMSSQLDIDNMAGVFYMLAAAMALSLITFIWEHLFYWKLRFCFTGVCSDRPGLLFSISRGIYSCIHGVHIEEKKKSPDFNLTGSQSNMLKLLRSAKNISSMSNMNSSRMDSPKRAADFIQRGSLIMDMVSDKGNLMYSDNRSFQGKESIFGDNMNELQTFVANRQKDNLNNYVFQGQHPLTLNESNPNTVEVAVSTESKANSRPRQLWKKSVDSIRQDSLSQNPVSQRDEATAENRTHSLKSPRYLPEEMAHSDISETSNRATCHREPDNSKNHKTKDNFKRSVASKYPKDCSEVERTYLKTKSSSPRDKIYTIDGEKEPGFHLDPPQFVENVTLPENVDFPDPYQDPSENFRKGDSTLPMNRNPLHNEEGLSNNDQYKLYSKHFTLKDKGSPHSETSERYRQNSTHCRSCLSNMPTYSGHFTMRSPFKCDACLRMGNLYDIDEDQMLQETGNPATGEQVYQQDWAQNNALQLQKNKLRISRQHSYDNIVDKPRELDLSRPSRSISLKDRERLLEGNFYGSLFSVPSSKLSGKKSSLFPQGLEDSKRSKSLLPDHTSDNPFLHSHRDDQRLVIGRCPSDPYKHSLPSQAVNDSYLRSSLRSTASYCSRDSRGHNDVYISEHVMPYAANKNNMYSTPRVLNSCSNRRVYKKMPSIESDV
T2 sequence (Q13224 27-1484, species assumed, other chains not shown): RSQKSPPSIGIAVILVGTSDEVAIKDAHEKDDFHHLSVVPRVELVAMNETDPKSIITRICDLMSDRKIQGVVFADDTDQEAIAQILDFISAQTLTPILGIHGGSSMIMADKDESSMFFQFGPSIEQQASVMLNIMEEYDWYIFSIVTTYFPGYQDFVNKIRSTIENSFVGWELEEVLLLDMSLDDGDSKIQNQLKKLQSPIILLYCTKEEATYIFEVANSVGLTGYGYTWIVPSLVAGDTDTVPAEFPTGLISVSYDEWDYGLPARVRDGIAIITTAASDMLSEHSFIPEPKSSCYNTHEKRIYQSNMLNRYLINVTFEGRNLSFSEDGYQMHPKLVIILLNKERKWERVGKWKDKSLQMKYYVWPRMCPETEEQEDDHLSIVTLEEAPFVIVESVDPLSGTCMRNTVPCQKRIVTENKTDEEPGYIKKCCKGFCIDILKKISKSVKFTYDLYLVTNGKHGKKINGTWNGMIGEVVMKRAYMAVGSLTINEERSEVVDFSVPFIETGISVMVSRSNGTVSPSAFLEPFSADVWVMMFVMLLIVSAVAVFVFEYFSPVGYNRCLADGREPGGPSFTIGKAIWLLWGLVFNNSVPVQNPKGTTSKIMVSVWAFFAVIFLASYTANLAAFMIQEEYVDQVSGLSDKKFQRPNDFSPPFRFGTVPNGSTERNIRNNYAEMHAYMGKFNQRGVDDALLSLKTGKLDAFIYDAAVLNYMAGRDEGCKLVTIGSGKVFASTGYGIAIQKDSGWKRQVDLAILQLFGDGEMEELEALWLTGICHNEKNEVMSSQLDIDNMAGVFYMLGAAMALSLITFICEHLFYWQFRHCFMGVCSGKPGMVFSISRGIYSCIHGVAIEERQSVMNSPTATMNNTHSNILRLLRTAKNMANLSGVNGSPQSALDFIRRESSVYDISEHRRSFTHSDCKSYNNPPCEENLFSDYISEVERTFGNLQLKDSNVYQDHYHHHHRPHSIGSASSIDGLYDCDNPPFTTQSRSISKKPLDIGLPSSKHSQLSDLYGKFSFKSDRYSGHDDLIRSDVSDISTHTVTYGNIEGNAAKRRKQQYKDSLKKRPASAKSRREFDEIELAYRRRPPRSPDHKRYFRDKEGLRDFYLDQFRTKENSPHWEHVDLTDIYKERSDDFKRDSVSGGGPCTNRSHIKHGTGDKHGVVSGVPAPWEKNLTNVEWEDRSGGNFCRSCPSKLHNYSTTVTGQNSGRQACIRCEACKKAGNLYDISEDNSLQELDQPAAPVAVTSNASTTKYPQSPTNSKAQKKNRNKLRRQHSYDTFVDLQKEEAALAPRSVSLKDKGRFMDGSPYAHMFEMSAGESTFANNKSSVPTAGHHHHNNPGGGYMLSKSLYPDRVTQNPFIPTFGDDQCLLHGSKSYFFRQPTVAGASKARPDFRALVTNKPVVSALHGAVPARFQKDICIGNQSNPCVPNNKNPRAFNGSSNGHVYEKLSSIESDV

Row | SMILES | AUC(0-t) [1] | clearance [1] | half-life [1] | Cmax [1] | Vd [1] | Microsomal (Human): percent of compound remaining [2] | Plasma (Human): percent of compound remaining [3] | EC50 [4] | Emax [4] | EC50 [5] | Emax [5] | Plasma (Rat): percent of compound remaining [6] | Tmax [7] | AUC(0-t) [7] | bioavailability [7] | Cmax [7] | CSF Cmax [7] | Brain Cmax [7] | Microsomal (Rat): percent of compound remaining [8] | NMDAR2A A: % maximal [3H]MK-801 binding relative to 1 mM glycine [4] | other results
1 | O=C1NCCCCC12CCCCN2 (single isomer, unassigned) [AZ, 1,8-diazaspiro[5.6]dodecan-7-one] | 15400 ng·h/mL | 2.17 mL/min/kg | 255 min | 17900 ng/mL | 0.17 L/kg | 92% | 101% | < 1 nM | < 100% | < 1 nM | < 100% | 101% | 60 min | 74300 ng·h/mL | 97% | 29100 ng/mL | 5343.89 ng/mL | 8074.7 ng/mL | 91% |  | 
2 | O=C1NCCCCC12CCCNC2 (single isomer, unassigned) [CF, 2,8-diazaspiro[5.6]dodecan-7-one] | 1110 ng·h/mL | 29.9 mL/min/kg | 108 min | 1990 ng/mL | 2.85 L/kg | 91% | 107% | < 1 nM | < 100% | < 1 nM | < 100% | 91% | 120 min | 1830 ng·h/mL | 33% | 556 ng/mL | 51.64 ng/mL | 48.22 ng/mL | 88% |  | 
3 | CN1CC=CCC2(CCCN2Cc2ccccc2)C1=O (single isomer, unassigned) [GT-1, 1-benzyl-7-methyl-1,7-diazaspiro[4.6]undec-9-en-6-one] | 210 ng·h/mL | 157 mL/min/kg | 39.6 min | 421 ng/mL | 6.5 L/kg | 72% | 101% | < 1 nM | < 100% | < 1 nM | < 100% | 96% | 34.8 min | 9.16 ng·h/mL | 1% | 23.3 ng/mL | 0 ng/mL | 0 ng/mL | 3% |  | 

The next lines start with results.

Row | AUC(0-t) [1] | clearance [1] | half-life [1] | Cmax [1] | Vd [1] | Microsomal (Human): percent of compound remaining [2] | Plasma (Human): percent of compound remaining [3] | EC50 [4] | Emax [4] | EC50 [5] | Emax [5] | Plasma (Rat): percent of compound remaining [6] | Tmax [7] | AUC(0-t) [7] | bioavailability [7] | Cmax [7] | CSF Cmax [7] | Brain Cmax [7] | Microsomal (Rat): percent of compound remaining [8] | NMDAR2A A: % maximal [3H]MK-801 binding relative to 1 mM glycine [4] | SMILES | other results
4 | 326 ng·h/mL | 101 mL/min/kg | 19.2 min | 976 ng/mL | 2.25 L/kg | 114% | 99% | < 1 nM |  | < 1 nM |  | 104% | 25.2 min | 150 ng·h/mL | 9% | 132 ng/mL | 205.53 ng/mL | 97.39 ng/mL | 102% | + (<100%=+) | CC(C)CN1CCCC12CC=CCNC2=O (single isomer, unassigned) [GI-2, 1-isobutyl-1,7-diazaspiro[4.6]undec-9-en-6-one] | NMDAR2B A: % maximal [3H]MK-801 binding relative to 1 mM glycine [5]: + (<100%=+)
5 | 1290 ng·h/mL | 25.7 mL/min/kg | 106 min | 2310 ng/mL | 1.11 L/kg | 94% | 96% | < 1 nM |  | < 1 nM |  | 97% | 15 min | 5480 ng·h/mL | 85% | 5390 ng/mL | 1400.31 ng/mL | 492.96 ng/mL | 102% | + (<100%=+) | NC(=O)CN1CCCC12CC=CCNC2=O (single isomer, unassigned) [GQ-2, 2-(6-oxo-1,7-diazaspiro[4.6]undec-9-en-1-yl)acetamide] | NMDAR2B A: % maximal [3H]MK-801 binding relative to 1 mM glycine [5]: + (<100%=+)
